Legend:
[1] = system: Triticum aestivum (spring wheat, TRZAS); assay type: in vivo
Method: (§1) Seeds of the desired test plant species were planted in a 90:10% v/v (volume/volume) mixture of PRO-MIX® BX (Premier Tech Horticulture, Quakertown, PA, USA) and PROFILE® GREENS GRADE™ (Profile Products LLC, Buffalo Grove, IL, USA) planting mixture, which typically has a pH of 5.2 to 6.2 and an organic matter content of at least 50 percent, in plastic pots with a surface area of 103.2 square centimeters (cm^2). […] The plants were grown for 7-36 days (d) in a greenhouse with an approximate 14-hour (h) photo-period which was maintained at about 23° C. during the day and 22° C. during the night. Nutrients and water were added on a regular basis and supplemental lighting was provided with overhead metal halide 1000-Watt lamps as necessary. The plants were employed for testing when they reached the second or third true leaf stage.
(§2) Emulsifiable concentrates of each of each pyridine carboxylate herbicide (Compound A or Compound B) were prepared at 100 grams acid equivalent per liter (g ae/L). The emulsifiable concentrates also included a safener, cloquintocet-mexyl, at 120 grams active ingredient per liter (g ai/L), unless otherwise noted below. An aliquot of each emulsifiable concentrate was placed in a 25 mL glass vial and diluted with an aqueous mixture of 1.25% (v/v) ACTIROB® B esterified rapeseed oil (Bayer Crop Science, Research Triangle Park, NC, USA) or MSO® Concentrate with LECI-TECH® methylated soybean oil (Loveland Products, Loveland, CO, USA) to obtain concentrated stock solutions at the highest application rate for each herbicide, based upon a 12 milliliter (mL) application volume at a rate of 187 liters per hectare (L/ha). The concentrated stock solutions were further diluted with an aqueous mixture of 1.25% v/v ACTIROB® B or MSO® Concentrate with LECI-TECH® to obtain stock solutions at reduced application rates for each herbicide. Spray solutions of the herbicide combinations (Compound A or Compound B plus synthetic auxin herbicide or auxin transport inhibitor) were prepared by adding weighed amounts or aliquots of the synthetic auxin herbicide or auxin transport inhibitor to the stock solutions of Compound A or Compound B to form 12-mL spray solutions in two-way combinations.
(§3) The spray solutions were applied to the plant material with an overhead Mandel track sprayer equipped with 8002E nozzles calibrated to deliver 187 L/ha over an application area of 0.503 square meters (m^2) at a spray height of 18 inches (43 centimeters (cm)) above the average plant canopy. Control plants were sprayed in the same manner with the solvent blank. All pyridine carboxylate herbicide (component a) application rates are given as “g ae/ha” and all synthetic auxin herbicide or auxin transport inhibitor (component b) application rates are given as “g ai/ha.”
(§4) The treated plants and control plants were placed in a greenhouse as described above and watered by sub-irrigation to prevent wash-off of the test compounds. After 20-22 d, the condition of the test plants as compared with that of the control plants was determined visually and scored on a scale of 0 to 100 percent where 0 corresponds to no injury and 100 corresponds to complete kill.

[2] = system: Cirsium arvense (Canadian thistle, CIRAR); assay: Greenhouse postemergence trial CIRAR; assay type: in vivo; conditions: for visual injury, Obs: CIRAR, partner herbicide 560 g/ha alone
[3] = system: Hordeum vulgare (spring barley, HORVS); assay type: in vivo
[4] = system: Triticum aestivum (winter wheat, TRZAW); assay: Greenhouse postemergence crop phytotoxicity TRZAW; assay type: in vivo; conditions: TRZAW; partner herbicide 560 g/ha alone
Method: as §1, §2, §3, §4

[5] = system: Veronica hederifolia (ivyleaf speedwell, VERHE); assay: Greenhouse postemergence trial VERHE; assay type: in vivo; conditions: VERHE; partner herbicide 560 g/ha alone
Method: as §1, §2, §3, §4

[6] = system: Anthemis arvensis (field chamomile, ANTAR); assay: Greenhouse postemergence trial ANTAR; assay type: in vivo; conditions: ANTAR; partner herbicide 560 g/ha alone
[7] = system: Matricaria inodora (false chamomile, MATIN); assay: Greenhouse postemergence trial MATIN; assay type: in vivo; conditions: MATIN; partner herbicide 560 g/ha alone
Method: as §1, §2, §3, §4

[8] = system: Polygonum convolvulus (wild buckwheat, POLCO); assay: Greenhouse postemergence trial POLCO; assay type: in vivo; conditions: POLCO; partner herbicide 560 g/ha alone
[9] = system: Matricaria chamomilla (wild chamomile, MATCH); assay: Greenhouse postemergence trial MATCH; assay type: in vivo; conditions: MATCH; for visual injury, Obs: partner herbicide 560 g/ha alone;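 on all read-outs here: greenhouse plants sprayed at second to third true leaf stage, injury rated by eye 20-22 d later versus solvent-blank controls on 0–100 scale, 0 no injury, 100 complete kill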
[10] = system: Kochia scoparia (kochia, KCHSC); assay: Greenhouse postemergence trial KCHSC; assay type: in vivo; conditions: KCHSC; partner herbicide 560 g/ha alone
[11] = system: Papaver rhoeas (corn poppy), herbicide-resistant (PAPRH-R); assay: Greenhouse postemergence trial PAPRH-R; assay type: in vivo; conditions: PAPRH-R; partner herbicide 560 g/ha alone
Method: as §1, §2, §3, §4

[12] = system: Veronica persica (bird's-eye speedwell, VERPE); assay: Greenhouse postemergence trial VERPE; assay type: in vivo; conditions: VERPE; partner herbicide 560 g/ha alone
[13] = system: Hordeum vulgare (winter barley, HORVW); assay: Greenhouse postemergence crop phytotoxicity HORVW; assay type: in vivo; conditions: HORVW; partner herbicide 560 g/ha alone
[14] = system: Lamium purpureum (purple deadnettle, LAMPU); assay: Greenhouse postemergence trial LAMPU; conditions: LAMPU; partner herbicide 560 g/ha alone
Method: (§5) The plants were grown for 7-36 days (d) in a greenhouse with an approximate 14-hour (h) photo-period which was maintained at about 23° C. during the day and 22° C. during the night. Nutrients and water were added on a regular basis and supplemental lighting was provided with overhead metal halide 1000-Watt lamps as necessary. The plants were employed for testing when they reached the second or third true leaf stage.
(§6) The emulsifiable concentrates also included a safener, cloquintocet-mexyl, at 120 grams active ingredient per liter (g ai/L), unless otherwise noted below.
(§7) Control plants were sprayed in the same manner with the solvent blank. All pyridine carboxylate herbicide (component a) application rates are given as “g ae/ha” and all synthetic auxin herbicide or auxin transport inhibitor (component b) application rates are given as “g ai/ha.”
as §4

[15] = system: Papaver rhoeas (corn poppy, PAPRH); assay: Greenhouse postemergence trial PAPRH; assay type: in vivo; conditions: PAPRH; partner herbicide 560 g/ha alone
Method: as §1, §2, §3, §4

[16] = system: Stellaria media (chickweed, STEME); assay: Greenhouse postemergence trial STEME; assay type: in vivo; conditions: STEME; partner herbicide 560 g/ha alone
Method: as §1, §2, §3, §4

[17] = system: Sinapis arvensis (wild mustard, SINAR); assay: Greenhouse postemergence trial SINAR; assay type: in vivo; conditions: SINAR; partner herbicide 560 g/ha alone
[18] = system: Brassica napus (winter rape, BRSNW); assay: Greenhouse postemergence trial BRSNW; assay type: in vivo; conditions: for visual injury, Obs: partner herbicide 560 g/ha alone
[19] = system: Matricaria discoidea (pineapple weed, MATMT); assay: Greenhouse postemergence trial MATMT; assay type: in vivo; conditions: MATMT; partner herbicide 560 g/ha alone
Method: as §1, §2, §3, §4

[20] = system: Capsella bursa-pastoris (shepherd's purse, CAPBP); assay: Greenhouse postemergence trial CAPBP; assay type: in vivo; conditions: CAPBP; partner herbicide 560 g/ha alone
[21] = system: Viola arvensis (field violet, VIOAR); assay: Greenhouse postemergence trial VIOAR; assay type: in vivo; conditions: VIOAR; partner herbicide 560 g/ha alone
[22] = system: Cyanus segetum (cornflower, CENCY); assay: Greenhouse postemergence trial CENCY; assay type: in vivo; conditions: CENCY; partner herbicide 560 g/ha alone
[23] = system: Salsola kali (Russian thistle, SASKR); assay: Greenhouse postemergence trial SASKR; assay type: in vivo; conditions: SASKR; partner herbicide 560 g/ha alone;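 further: greenhouse plants sprayed at second or third true leaf stage, injury rated by eye after 20-22 d against solvent-blank controls, 0 meaning no injury, 100 complete kill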
Method: as §5, §6, §7, §4

[24] = system: Viola tricolor (wild pansy, VIOTR); assay: Greenhouse postemergence trial VIOTR; conditions: VIOTR; partner herbicide 560 g/ha alone;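 further: greenhouse plants sprayed at second to third true leaf stage, injury rated visually after 20-22 d against solvent-blank sprayed controls, 0 meaning no injury and 100 complete kill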
[25] = system: Chenopodium album L. (common lambsquarters, CHEAL); assay: Greenhouse postemergence trial CHEAL; assay type: in vivo;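 further: greenhouse plants sprayed at second to third true leaf stage, injury rated by eye after 20-22 d versus solvent-blank sprayed controls, 0 = no injury, 100 = complete kill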
Method: as §5, §6, §7, §4

[26] = system: Amaranthus retroflexus (pigweed, AMARE); assay: Greenhouse postemergence trial AMARE; assay type: in vivo;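 further: Greenhouse-grown plants sprayed at second to third true leaf stage, injury rated by eye after 20-22 d versus solvent-blank sprayed controls, 0 = no injury, 100 = complete kill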
[27] = c1-2 Compound A 7.5/10, c3 Dicamba 140, c4-5 A 7.5/10 + Dicamba 140 g/ha

SMILES	visual injury, Obs [2]	visual injury, Obs [5]	visual injury, Obs [6]	visual injury, Obs [7]	visual injury, Obs [8]	visual injury, Obs [9]	visual injury, Obs [10]	visual injury, Obs [11]	visual injury, Obs [12]	visual injury, Obs [14]	visual injury, Obs [15]	visual injury, Obs [16]	visual injury, Obs [17]	visual injury, Obs ([18]; BRSNW)	visual injury, Obs [19]	visual injury, Obs [20]	visual injury, Obs [21]	visual injury, Obs [22]	visual injury, Obs [23]	visual injury, Obs [24]	other results
Cc1cc(Cl)ccc1OCC(=O)O [MCPA]	65%	65%	60%	50%	30%	30%	30%	60%	60%	10%	95%	50%	100%	90%	5%	60%	20%	95%	30%	60%	visual injury, Obs ([1]; TRZAS, partner herbicide 560 g/ha alone): 0%; visual injury, Obs ([3]; HORVS, partner herbicide 560 g/ha alone): 0%; visual injury, Obs [4]: 0%; visual injury, Obs [13]: 0%
COc1c(Cl)ccc(Cl)c1C(=O)O [Dicamba, dicamba, reference compound]	70%	75%	100%	70%	100%	35%	80%	30%	60%	20%	30%	75%	85%	70%	25%	60%	30%	100%	65%	20%	% visual injury [25, 27]: 48%; % visual injury, Obs ([9]; applied alone, 140 g/ha): 3%; % visual injury, Obs ([26]; AMARE, applied alone, 140 g/ha): 60%; % visual injury [26, 27]: 50%; plant injury at 140 g/ha ([18]; Brassica napus, post-emergence, BRSNW, applied alone, 140 g/ha, read-out: % visual injury, Obs): 23%
Cc1cc(Cl)ccc1OCC(=O)O [MCPA-DMA, MCPA-dimethylammonium, reference compound]	–	–	–	–	–	–	–	–	–	–	–	–	–	–	–	–	–	–	–	–	% visual injury (crop phytotoxicity) ([1]; Triticum aestivum (spring wheat, TRZAS), in vivo): 0%; TRZAS % visual injury Obs ([1]; in vivo): 0%; CIRAR % visual injury Obs ([2]; in vivo): 60%; % visual injury (crop phytotoxicity) ([3]; Hordeum vulgare (spring barley, HORVS), in vivo): 0%; HORVS % visual injury Obs ([3]; in vivo): 0%; % visual injury ([25]; in vivo): 75%; % visual injury ([26]; in vivo): 63%; BRSNW % visual injury Obs ([18]; MCPA-DMA 400 g/ha (Table 37)): 83%

— patent publication US12568967B2, “Compositions comprising pyridine carboxylate herbicides with synthetic auxin herbicides or auxin transport inhibitors” (priority 2018, dated 2026)
